Measured values from patent US20240287048A1, “SUBSTITUTED ACYL SULFONAMIDES FOR TREATING CANCER” (The Broad Institute, Inc., priority 2020, published 2024).

Assays:
[1] = test system: ESR1 transcription in MVLN cells; test: Repression of ESR1 transcription, MVLN luciferase reporter assay; type: cell-based; details: Homo sapiens, luciferase signal after 24 h, read-out: MVLN reporter assay, IC50[M] (arithmetic mean)
Summary of the method: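 MVLN cells stably carry an ER-responsive vitellogenin A2 element driving luciferase. After 24 h of compound treatment, luciferase was read in lysate as the measure of ERα transcription. Alamar Blue fluorescence (530/590 nm, 2 h) was read first to control for cell loss; samples were run in duplicate.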

[2] = test system: ZR-75-1 cells; test: Proliferation assay in ZR-75-1 cells; type: cell-based; details: Homo sapiens, 144 h, Alamar Blue, read-out: ZR75-1 proliferation assay, EC50[M] (arithmetic mean)
Excerpt: (§1) For compound characterization cell survival assays were routinely run in two cell lines. ZR-75-1 is a breast carcinoma cell line containing a focal KAT6A amplification and high KAT6A protein expression. Proliferation of this cell line is inhibited upon treatment with KAT6A inhibitors. As a negative control cell line MDA-MB-436 were used. These cells carry a […] deletion of the KAT6A gene, have a low KAT6A protein expression and are not growth inhibited upon treatment with KAT6A inhibitors.
(§2) For measurements cell lines were plated at the below indicated concentration per […] in 96-well plates in a humidified incubator at 37° C. and 5% CO2.
(§3) ZR-75-1 (ATCC, CRL-1500; breast carcinoma); 3000 cells per well; culture medium: RPMI 1640 (Biochrom #FG 1215) medium containing 2.5% FBS (Biochrom #S0615). LCLC-97TM1 (DSMZ, ACC 388; large cell lung carcinoma); 6000 cells per well; culture medium: RPMI 1640 (Biochrom #FG 1215) medium containing 2.5% FBS (Biochrom #S0615). MDA-MB-436 (CLS, 300278; breast adenocarcinoma); 3000 cells per well; culture medium: DMEM/Ham's F12 (Biochrom #FG 4815) medium containing 2.5% FBS (Biochrom #S0615).
(§4) Each sample was prepared as triplicate and rim wells were excluded. Plates were incubated at 37° C. and 5% CO2 for 144 h. Cell viability was measured by adding 10 μL of Alamar Blue Reagent (Invitrogen #DAL 1100) and plates were incubated for 2 h at 37° C. and 5% CO2. Fluorescence was measured at 590 nm wavelength with a Tecan Spark or Victor X3 MTP-Reader (PerkinElmer).

[3] = test system: MDA-MB-436 cells; test: Proliferation assay in MDA-MB-436 cells (negative control cell line); type: cell-based; details: Homo sapiens, 144 h, Alamar Blue, read-out: MDA-MB-436 proliferation assay, EC50[M] (arithmetic mean)
Excerpt: as §1, §2, §3, §4

[4] = molecular target: T1, KAT6B (Homo sapiens, UniProt Q8WYB5); test: Kat6b activity assay (TR-FRET, acetylation of biotinylated histone H4 peptide); type: biochemical; details: recombinant human GST-tagged Kat6b (431-end), 30 mins at 22° C., read-out: KAT6B activity assay IC50 [mol/l] (arithmetic mean)
T1 construct: fused on or other part: N-terminal GST tag
Excerpt: Kat6b inhibitory activities of the compounds described in the present invention were quantified using a Fluorescence Resonance Energy Transfer (TR-FRET) assay which measures acetylation of a synthetic, biotinylated Histone-H4-derived peptide by the enzyme.
Recombinant human GST-tagged Kat6b protein (431-end, N-terminal GST-tag), purified from Baculovirus-infected insect cells (Sf9), was purchased from SignalChem (#K315-381BG). Histone H4 peptide (amino acids 1-24, […]-VLRD-K(Btn)-amide), which was used as substrate, was synthesized by Biosyntan GmbH, Berlin, Germany. Acetyl Coenzyme A was purchased from Sigma-Aldrich (#A-2056).
Kat6b was incubated for 30 mins at 22° C. in the presence of different concentrations of test substances (0 μM, and within the range 0.01-20 μM) in assay buffer [25 mM Tris/HCl pH 8, 1 mM EGTA, 2.5 mM Glutathion, 0.02% Chicken Albumin, 0.05% Pluronic F127, 25 mM NaCl, 500 nM H4 peptide and 600 nM Acetyl Coenzyme A].
The reaction was stopped by addition of Detection Solution (25 mM HEPES pH 7.5, 0.1% BSA, 22 nM SAXL665 (Cisbio #610SAXLE), 100 μM Anacardic Acid (Enzo #ALX-270-381), 1 nM Anti-Histone H4 (ACETYL K8) Antibody (ABCAM #AB15823), 0.5 nM Anti-Rabbit IgG Eu (Perkin Elmer #AD0083).
The fluorescence emission at 620 nm and 665 nm after excitation at 330-350 nm was measured in a TR-FRET measuring instrument, for instance a Rubystar or a Pherastar (both from BMG Lab Technologies, Offenburg, Germany) or a Viewlux (Perkin-Elmer). The ratio of the emission at 665 nm and at […] was used as indicator of the amount of acetylated peptide.
The resulting data (ratio) were normalized, taking 0% inhibition as the mean value of control measurements where all reagents were included. In this case 50 nl DMSO were used instead of compounds. […] IC50 values were determined by regression analysis based on a 4 parameter equation (minimum, maximum, ICM, Hill; Y=Max+(Min−Max)/(1+(X/ICso) Hill) using the Screener Software (Genedata).

[5] = test system: LCLC-97TM1 cells; test: Proliferation assay in LCLC-97TM1 cells; type: cell-based; details: Homo sapiens, 144 h, Alamar Blue, read-out: LCLC97TM1 proliferation assay, EC50[M] (arithmetic mean)
Protocol: as §2, §3, §4

[6] = molecular target: T2, KAT6A (Homo sapiens, UniProt Q92794); test: Kat6a activity assay (TR-FRET, acetylation of biotinylated histone H4 peptide); type: biochemical; details: recombinant human His-tagged Kat6a (amino acids 194-810), 60 mins at 22° C., read-out: KAT6A-DPF/HAT domain IC50 [mol/l] (arithmetic mean)
T2 construct: Recombinant human His-tagged Kat6a protein (amino acids 194-810); His; made in house; host or cells: Baculovirus-infected Sf9 insect cells
Summary of the method: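 His-tagged human Kat6a (aa 194-810, Sf9-expressed) with compound (0.01-20 μM) for 60 min at 22° C., pH 8 Tris buffer, 220 nM biotinylated H4 peptide (aa 1-24) and 600 nM acetyl-CoA. Acetyl-K8 detected by Eu-antibody/SA-XL665 TR-FRET (665/620 nm ratio); IC50 from 4-parameter fit.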

[7] = test system: E. coli wp2 (E. coli wp2 [pKM101] and E. coli wp2 uvrA, combined exposure); test: Bacterial reverse gene mutation test Ames MPF Penta I, E. coli wp2; type: cell-based
Excerpt: (§5) The employed commercial assay Ames MPF Penta I comprises the histidine auxotrophic Salmonella tester strains TA98, TA100, TA1535, TA1537 and two tryptophan auxotrophic tester strains E. coli wp2 (E. coli wp2 [pKM101] and E. coli wp2 uvrA, combined exposure). These strains meet the requirements of the OECD guideline 471 for testing chemicals.
(§6) Bacterial strains were exposed to various concentrations of the test compounds in a histidine (His) or tryptophane (Trp) deficient medium. As recommended by ICH S2(R1) guideline, the test was conducted in two assay conditions, with and without addition of microsomal enzymes (S9 mix), taking the potential formation of DNA reactive metabolites via xenobiotic biotransformation into account.
(§7) The potential of the test compound to induce gene mutations is assessed by comparing the control with the test compounds treated bacterial cultures.

[8] = test system: Salmonella tester strain TA100; test: Bacterial reverse gene mutation test Ames MPF Penta I, TA100; type: cell-based
Excerpt: as §5, §6, §7

[9] = test system: Salmonella tester strain TA98; test: Bacterial reverse gene mutation test Ames MPF Penta I, TA98; type: cell-based
Excerpt: as §5, §6, §7

[10] = test system: Salmonella tester strain TA1535; test: Bacterial reverse gene mutation test Ames MPF Penta I, TA1535; type: cell-based
Excerpt: as §5, §6, §7

[11] = test system: Salmonella tester strain TA1537; test: Bacterial reverse gene mutation test Ames MPF Penta I, TA1537; type: cell-based
Excerpt: as §5, §6, §7

T1 sequence (Q8WYB5 723-2073 limits assumed): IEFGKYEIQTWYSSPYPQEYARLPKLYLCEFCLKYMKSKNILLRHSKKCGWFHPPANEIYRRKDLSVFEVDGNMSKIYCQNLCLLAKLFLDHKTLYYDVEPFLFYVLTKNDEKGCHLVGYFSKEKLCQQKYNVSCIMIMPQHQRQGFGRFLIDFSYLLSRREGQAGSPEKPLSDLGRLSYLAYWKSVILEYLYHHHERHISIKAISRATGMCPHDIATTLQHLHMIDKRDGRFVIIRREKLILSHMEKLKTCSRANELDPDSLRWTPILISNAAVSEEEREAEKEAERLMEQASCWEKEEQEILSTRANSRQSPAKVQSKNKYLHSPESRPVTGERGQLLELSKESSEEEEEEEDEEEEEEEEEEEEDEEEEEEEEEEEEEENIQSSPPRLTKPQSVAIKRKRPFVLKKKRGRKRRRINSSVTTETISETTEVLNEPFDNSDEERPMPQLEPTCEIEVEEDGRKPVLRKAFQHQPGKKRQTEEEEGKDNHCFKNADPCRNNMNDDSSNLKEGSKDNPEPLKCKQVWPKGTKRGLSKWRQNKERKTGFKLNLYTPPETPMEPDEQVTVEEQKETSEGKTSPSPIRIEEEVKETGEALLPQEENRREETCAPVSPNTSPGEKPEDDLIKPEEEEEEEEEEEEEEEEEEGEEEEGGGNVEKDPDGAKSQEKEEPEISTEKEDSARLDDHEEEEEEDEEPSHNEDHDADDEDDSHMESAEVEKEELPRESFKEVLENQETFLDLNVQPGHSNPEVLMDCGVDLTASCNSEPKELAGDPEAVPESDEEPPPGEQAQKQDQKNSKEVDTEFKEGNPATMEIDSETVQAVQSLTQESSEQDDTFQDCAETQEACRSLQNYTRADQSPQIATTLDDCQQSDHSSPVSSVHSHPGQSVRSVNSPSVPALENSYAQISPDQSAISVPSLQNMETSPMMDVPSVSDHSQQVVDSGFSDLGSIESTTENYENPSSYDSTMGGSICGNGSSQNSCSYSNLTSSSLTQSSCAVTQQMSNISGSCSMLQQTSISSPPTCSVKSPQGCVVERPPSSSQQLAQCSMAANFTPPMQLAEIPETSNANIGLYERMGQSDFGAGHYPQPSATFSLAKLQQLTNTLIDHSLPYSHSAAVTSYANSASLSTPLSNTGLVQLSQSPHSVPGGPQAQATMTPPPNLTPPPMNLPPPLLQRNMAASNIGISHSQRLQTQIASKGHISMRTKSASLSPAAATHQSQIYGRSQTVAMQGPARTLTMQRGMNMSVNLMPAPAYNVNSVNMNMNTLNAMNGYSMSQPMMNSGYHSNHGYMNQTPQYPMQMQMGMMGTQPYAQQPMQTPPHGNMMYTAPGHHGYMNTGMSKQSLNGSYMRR
T2 sequence (Q92794 194-810): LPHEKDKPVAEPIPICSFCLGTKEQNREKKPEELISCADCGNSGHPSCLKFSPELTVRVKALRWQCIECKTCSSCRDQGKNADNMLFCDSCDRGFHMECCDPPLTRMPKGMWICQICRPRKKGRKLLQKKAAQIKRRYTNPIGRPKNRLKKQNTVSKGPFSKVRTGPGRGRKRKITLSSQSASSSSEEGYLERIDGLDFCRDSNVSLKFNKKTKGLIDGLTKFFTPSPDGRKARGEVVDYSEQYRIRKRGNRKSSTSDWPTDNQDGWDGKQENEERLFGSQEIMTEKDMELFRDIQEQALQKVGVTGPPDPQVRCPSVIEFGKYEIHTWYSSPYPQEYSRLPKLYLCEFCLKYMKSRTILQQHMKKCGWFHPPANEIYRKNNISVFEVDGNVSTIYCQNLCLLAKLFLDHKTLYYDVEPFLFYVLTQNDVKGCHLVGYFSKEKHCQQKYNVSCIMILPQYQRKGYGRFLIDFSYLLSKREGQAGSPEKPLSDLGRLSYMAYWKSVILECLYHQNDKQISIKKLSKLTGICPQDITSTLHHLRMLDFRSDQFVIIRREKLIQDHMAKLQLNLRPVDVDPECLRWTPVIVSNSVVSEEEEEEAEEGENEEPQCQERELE

IC50 [1] [M] | EC50 [3] [M] | IC50 [4] [µM] | IC50 [6] [µM] | SMILES | EC50 [2] [M] | EC50 [5] [M] | Result of the bacterial reverse gene mutation test Ames MPF Penta I, E. coli wp2 ([7]; with addition of S9 mix) | Result of the bacterial reverse gene mutation test Ames MPF Penta I, E. coli wp2 ([7]; without addition of S9 mix) | Result of the bacterial reverse gene mutation test Ames MPF Penta I, TA100 ([8]; with addition of S9 mix) | Result of the bacterial reverse gene mutation test Ames MPF Penta I, TA100 ([8]; without addition of S9 mix) | Result of the bacterial reverse gene mutation test Ames MPF Penta I, TA98 ([9]; with addition of S9 mix) | Result of the bacterial reverse gene mutation test Ames MPF Penta I, TA98 ([9]; without addition of S9 mix) | Result of the bacterial reverse gene mutation test Ames MPF Penta I, TA1535 ([10]; with addition of S9 mix) | Result of the bacterial reverse gene mutation test Ames MPF Penta I, TA1535 ([10]; without addition of S9 mix) | Result of the bacterial reverse gene mutation test Ames MPF Penta I, TA1537 ([11]; with addition of S9 mix) | Result of the bacterial reverse gene mutation test Ames MPF Penta I, TA1537 ([11]; without addition of S9 mix)
1.17e-06 | > 2e-05 | 0.0531 | 0.0271 | Cc1cc(C)c2cc(C(=O)NS(=O)(=O)c3cccc4ccc(C)nc34)oc2c1 [Example 21, 4,6-Dimethyl-N-(2-methylquinoline-8-sulfonyl)-1-benzofuran-2-carboxamide] | 1.61e-06 | 3.47e-06 |  |  |  |  |  |  |  |  |  | 
1.11e-05 | > 2e-05 | 2.22 | 0.882 | Cc1ccc2cc(C(=O)NS(=O)(=O)c3ccccc3-c3ccccc3)oc2c1 [Example 2, N-([1,1′-biphenyl]-2-sulfonyl)-6-methyl-1-benzofuran-2-carboxamide] | > 2e-05 |  |  |  |  |  |  |  |  |  |  | 
8.69e-06 | > 2e-05 | 1.78 | 1.35 | CC(C)c1ccc2cc(C(=O)NS(=O)(=O)c3ccccc3Cl)oc2c1 [Example 73, N-(2-chlorobenzenesulfonyl)-6-(propan-2-yl)-1-benzofuran-2-carboxamide] | 7.08e-06 | > 2e-05 |  |  |  |  |  |  |  |  |  | 
1.52e-05 | > 2e-05 | 3.94 | 1.56 | CC(C)c1ccc2cc(C(=O)NS(=O)(=O)c3ccccc3)oc2c1 [Example 56, N-(Benzenesulfonyl)-6-(propan-2-yl)-1-benzofuran-2-carboxamide] | > 2e-05 |  |  |  |  |  |  |  |  |  |  | 
5.08e-06 | > 2e-05 | 1.73 | 1.13 | CCOc1ccccc1S(=O)(=O)NC(=O)c1cc2c(OC)cc(C)cc2o1 [Example 13, N-(2-Ethoxybenzene-1-sulfonyl)-4-methoxy-6-methyl-1-benzofuran-2-carboxamide] | 1.02e-05 |  |  |  |  |  |  |  |  |  |  | 

SMILES | IC50 [1] [M] | EC50 [3] [M] | IC50 [4] [µM] | IC50 [6] [µM] | EC50 [2] [M] | EC50 [5] [M] | Result of the bacterial reverse gene mutation test Ames MPF Penta I, E. coli wp2 ([7]; with addition of S9 mix) | Result of the bacterial reverse gene mutation test Ames MPF Penta I, E. coli wp2 ([7]; without addition of S9 mix) | Result of the bacterial reverse gene mutation test Ames MPF Penta I, TA100 ([8]; with addition of S9 mix) | Result of the bacterial reverse gene mutation test Ames MPF Penta I, TA100 ([8]; without addition of S9 mix) | Result of the bacterial reverse gene mutation test Ames MPF Penta I, TA98 ([9]; with addition of S9 mix) | Result of the bacterial reverse gene mutation test Ames MPF Penta I, TA98 ([9]; without addition of S9 mix) | Result of the bacterial reverse gene mutation test Ames MPF Penta I, TA1535 ([10]; with addition of S9 mix) | Result of the bacterial reverse gene mutation test Ames MPF Penta I, TA1535 ([10]; without addition of S9 mix) | Result of the bacterial reverse gene mutation test Ames MPF Penta I, TA1537 ([11]; with addition of S9 mix) | Result of the bacterial reverse gene mutation test Ames MPF Penta I, TA1537 ([11]; without addition of S9 mix)
CCOc1ccccc1S(=O)(=O)NC(=O)c1cc2c(F)cc(C3CC3)cc2o1 [Example 25, 6-Cyclopropyl-N-(2-ethoxybenzene-1-sulfonyl)-4-fluoro-1-benzofuran-2-carboxamide] | 5.42e-07 | > 2e-05 | 0.0284 |  | 6.44e-07 | > 2e-05 | negative | negative | negative | negative | negative | negative | negative | negative | negative | negative
